From patent publication US20240033237A1, “USE OF A-KETOGLUTARATE IN MANUFACTURE OF MEDICAMENT” (TONGJI UNIVERSITY, priority 2019, published 2024)

System: chondrocytes
Assay: Synthetic phenotype of IL-1β-stimulated mouse chondrocytes (whole-genome sequencing, q-PCR, western blot)
Type: cell-based
Protocol: Mouse chondrocytes were obtained from 7-day-old C57BL/6 mice (Shanghai Slac laboratory animal Co., Ltd.), and the procedure was as follows: under aseptic surgical conditions, bilateral knee cartilages of C57 mice were carefully stripped and digested with 0.2% neutral collagenase (Serva, Germany) for 8 h; cell precipitates were obtained by centrifugation, and the cells were resuspended in modified Eagle medium (DMEM) (Gibco, USA) containing 10% FBS, inoculated in culture dishes, and cultured with high-sugar DMEM medium (containing 10% FBS, 100 U/mL penicillin and 100 mg/L streptomycin) at 37° C. in a 5% CO2 constant temperature incubator. The medium was changed for the first time at 48 h. […] The cells were collected by centrifugation and resuspended, and the concentration was adjusted for inoculation in culture dishes. The cells were subcultured by the above method, and the obtained cells were labeled as P1, P2, P3 generations, etc.
(2) Real-Time Fluorescent Quantitative PCR (Real Time q-PCR) Analysis • 1) The P1 generation mouse chondrocytes cultured in Embodiment 1 were used, the culture medium was sucked out from the culture dish, and the cells were washed once with PBS. • 2) Extraction of total RNA • 1. chloroform (⅕ volume of RNAiso Plus) was added to the homogenate lysate, the cover of the centrifuge tube was closed tightly, and the centrifuge tube was shaken violently by hand for 15 seconds. […]
P1 generation mouse chondrocytes cultured in Embodiment 1 were subjected to western blot analysis through operations including the following: • 1. […] The protein concentration was determined by the BCA Protein Quantification Kit. […]

COC(=O)CCC(=O)C(=O)OC [α-KG, dimethyl-α-ketoglutarate]
expressions of chondrocyte synthetic genes SOX9, COL2A1, ACAN (q-PCR, 10 ng/ml IL-1β + 7 mM α-KG): promote the expressions
protein expressions of chondrocyte synthetic genes SOX9 and COL2A (western blot, 6 h, 12 h, 24 h, 36 h, 10 ng/ml IL-1β + 7 mM α-KG): promote the protein expressions
expressions of synthetic phenotypic genes (SOX9, COL2A1, ACAN, COL9A1, COL9A2, COL9A3, COL11A1, COL11A2) of chondrocytes (whole-genome sequencing, 24 h, 10 ng/ml IL-1β + 7 mM α-KG vs IL-1β group): increased
